The nature of the data set: Solubility of terbinafine hydrochloride. It counts as physicochemical. To be noted: for solubility at 24 h: thermodynamic from solid. How it is done: Buffer Preparation: Buffers were prepared at 50 mM concentration using ammonium acetate (pHs 4.0 and 10.0) or ammonium phosphate (pHs 6.0, 7.0, and 8.0). Solubility Sample Preparation: 100 to 800 mg terbinafine HCL was transferred to separate 4-mL vials. To each vial, 2 mL of the solvent to be investigated was added. Samples were capped and then rotated for 24 hours at room temperature. The samples were allowed to settle overnight at room temperature. Approximately 0.4 mL of the supernatant was removed and transferred to a 0.45 μm Nylon microcentrifuge filter and clarified. Samples were diluted with 50% methanol to within the calibration range. Sample Analysis: Samples were analyzed by HPLC with five-minute runs.

Counter-ions that a name gives are not always drawn.

Broadly, the solubility is the dissolved amount per volume that the medium holds. As usually defined, the Solubility is how much of the substance goes into solution per volume. Low values mean little dissolved substance, high ones much dissolved substance. Regarding `CN(C/C=C/C#CC(C)(C)C)Cc1cccc2ccccc12` [Terbinafine, terbinafine hydrochloride], the solubility at 24 h was 4800 µg/mL (50 mM ammonium acetate buffer pH 4.0, aqueous buffer, solvent pH 4.0 buffer); 1500 µg/mL (50 mM ammonium acetate buffer pH 10.0, aqueous buffer, solvent pH 10.0 buffer); 5000 µg/mL (50 mM ammonium phosphate buffer pH 6.0, aqueous buffer, solvent pH 6.0 buffer); 20 µg/mL (50 mM ammonium phosphate buffer pH 7.0, aqueous buffer, solvent pH 7.0 buffer); 2 µg/mL (50 mM ammonium phosphate buffer pH 8.0, aqueous buffer, solvent pH 8.0 buffer); 700 µg/mL (aqueous buffer, solvent PBS pH 5.5). For the same molecule, the solubility at 24 h reads like this: (aqueous with cosolvent or surfactant or cyclodextrin, solvent 10% Ethanol) 7500 µg/mL; (aqueous with cosolvent or surfactant or cyclodextrin, solvent 20% Ethanol) 11000 µg/mL; (aqueous with cosolvent or surfactant or cyclodextrin, solvent 40% Ethanol) 53000 µg/mL; (aqueous with cosolvent or surfactant or cyclodextrin, solvent 50% Ethanol) 119000 µg/mL; (oil or lipid, solvent Isopropyl myristate) 30 µg/mL; (organic solvent or mixture, solvent DMSO) 114000 µg/mL. In addition, the solubility at 24 h (organic solvent or mixture, solvent Ethanol) was 172000 µg/mL; the solubility at 24 h (organic solvent or mixture, solvent Isopropanol) was 26300 µg/mL; the solubility at 24 h (solvent Water, room temperature) was 5900 µg/mL. Further, the Solubility in words entry is “moderate solubility” (aqueous solvents with pHs of 4 and 6); “lower solubility” (non-polar solvents such as ethyl acetate and isopropyl myristate); “substantially lower solubility” (pHs 7, 8, and 10); “high solubility” (polar organic solvents such as ethanol and DMSO). Also, the Solubility runs as follows: (solvent 5% Ethanol) 6700 µg/mL; (solvent Ethyl acetate) 700 µg/mL.
